Test results from patent publication US10538580B2, “Anti-equol antibody composition and use therefor” (HEALTHCARE SYSTEMS CO., LTD., priority 2016, dated 2020).

Test system: anti-equol monoclonal antibody composition
Assay: Evaluating cross-reactivity of anti-equol monoclonal antibody composition
Type: binding, mouse
Settings: for Cross-reactivity with S-equol (%): S-equol as 100%; for S-equol concentration calculated from the calibration curve: reacted with the antibody, read from S-equol calibration curve
Description: The cross-reactivity rate can be obtained as follows for example. First, a calibration curve is prepared using S-equol. Compounds including S-equol are prepared with concentrations of 1 μM and 10 μM, and reacted with the antibody at each concentration, and the S-equol concentration is calculated from the calibration curve. For example, if 10 μM of daidzein is added and detected at a concentration of 10 μM based on the calibration curve the cross-reactivity is given as 100%, while if it is detected at a concentration of 1 μM the cross-reactivity is given as 10%, and if it is detected at a concentration of 0.1 μM the cross-reactivity is given as 1%. To investigate the cross-reactivity of the resulting antibody composition, reactivity to 9 kinds of compounds including S-equol (S-equol, daidzein, genistein, glycitein, ellagic acid dihydrate, catechin monohydrate, gallic acid, apigenin and DMA) was investigated. First, a calibration curve was prepared using S-equol. The 9 compounds including S-equol were prepared at concentrations of 1 μM and 10 μM, and reacted with the antibody at each concentration, and cross-reactivity was calculated from the calibration curve.

Compound | Cross-reactivity with S-equol (%) (compound at 1 μM) | Cross-reactivity with S-equol (%) (compound at 10 μM) | S-equol concentration calculated from the calibration curve (compound prepared at 1 μM) | S-equol concentration calculated from the calibration curve (compound prepared at 10 μM)
O=C(O)c1cc(O)c(O)c(O)c1 [Gallic acid, gallic acid] | 0.00 | 0.74 | 0.00 | 0.08
O=c1c(-c2ccc(O)cc2)coc2cc(O)ccc12 [Daidzein, daidzein] | 0.00 | 0.00 | 0.00 | 0.00
O=c1cc(-c2ccc(O)cc2)oc2cc(O)cc(O)c12 [Apigenin, apigenin] | 0.00 | 0.00 | 0.00 | 0.00
O=c1oc2c(O)c(O)cc3c(=O)oc4c(O)c(O)cc1c4c23 [Ellagic acid dihydrate, ellagic acid dihydrate] | 0.00 | 0.00 | 0.00 | 0.00
(+)-Catechin hydrate | 0.00 | 0.09 | 0.00 | 0.01
O=c1c(-c2ccc(O)cc2)coc2cc(O)cc(O)c12 [Genistein, genistein] | 0.00 | 0.00 | 0.00 | 0.00
Oc1ccc([C@@H]2COc3cc(O)ccc3C2)cc1 [R-Equol, R-equol] | 89.55 | 109.59 | 1.20 | 11.88
Oc1ccc([C@H]2COc3cc(O)ccc3C2)cc1 [S-Equol, S-equol] | 100.00 | 100.00 | 1.34 | 10.84
C[C@@H](C(=O)c1ccc(O)cc1O)c1ccc(O)cc1 [R—O-DMA, R—O-desmethylangolensin] | 0.00 | 0.00 | 0.00 | 0.00
COc1cc2c(=O)c(-c3ccc(O)cc3)coc2cc1O [Glycitein, glycitein] | 0.00 | 0.00 | 0.00 | 0.00
